Test system: IL-β
Experiment: ELISA of IL-β content in serum of rats with prolactinoma and adrenocorticotrophic hormone adenoma
Assay type: in vivo, F344 rats (Rattus norvegicus)
Details: oral gavage 40, 20, 10 mg/kg once a day for 30 days; vs model group
Description: 70 rats of the prolactinoma and adrenocorticotrophic hormone adenoma model as established in Step 1.1 “Establishment of Rattus norvegicus pituitary tumor model” and normal rats of the control group are used as samples.
The 70 F344 rats are randomly divided into the normal group, operation group, model group, positive drug group (bromocriptine positive drug group), high-dose hordenine group, medium-dose hordenine group, and low-dose hordenine group, […]. Except rats in the normal group and the operation group, rats in the other groups are all made into rats with prolactinoma and adrenocorticotrophic hormone adenoma.
Rats in the positive drug group are given an aqueous bromocriptine solution by gavage at a dose of 0.45 mg/kg. Rats in the high-, medium- and low-dose groups of an aqueous solution of hordenine are given an aqueous solution of hordenine by oral gavage at a dose of 40 mg/kg, 20 mg/kg, and 10 mg/kg, respectively. Rats in the normal group and the model group are given the same dose of distilled water. The administration is performed once a day for 30 days, and during this period of time, the rats are weighed every five days and the changes in body weight are recorded. […]
The contents of PRL and IL-β in the serum of rats in each group are determined by ELISA according to the procedures in the ELISA kit instructions.

With `CN(C)CCc1ccc(O)cc1` [hordenine, 4-(2-dimethylaminoethyl)phenol] as the molecule, how does the “expression of IL-β in serum (ELISA)” value read?
The value was “significantly inhibit”.
